# According to patent US20060035968A1, “Composition for preventing cancer comprising 2'-benzoyl-oxycinnamaldehyde” (Korea Research Institute of Bioscience and Biotechnology, priority 2004, published 2006):
# “Also recorded” adds a separate entry of the source.
# Key:
# [1] = test system: splenocytes; experiment: Splenocyte proliferation by [3H]-thymidine after LPS or ConA stimulation; format: cell-based, mouse; conditions: splenocytes of treated mice stimulated with ConA, 48 hours, FIG. 3B
# Description: On the other hand, 2×10^5 splenocytes were aliquotted into a 96-well plate, stimulated with a cell proliferation inducer, LPS (lipopolysaccharide) or ConA (concanavalin A), and cultured for 48 hours. 1 μCi of [^3H]-thymidine was added to each well, followed by incubation for 6 hours. Cells were harvested on a nitrocellulose membrane, and radiation activity was measured using a beta scintillation counter (Wallac, Turku, Finland) to investigate proliferation ability of splenocytes.
# [2] = test system: angiogenesis; conditions: J. Biological Chemistry, 279(8), 6911-6920, 2004; cited from earlier work
# [3] = test system: human retinal pigment epithelial (hRPE) cells; conditions: IOVS, 43(9), 3117-3124, 2002; cited from earlier work
# [4] = target: farnesyl-protein transferase (Homo sapiens, UniProt P49356); conditions: in vitro; cited from earlier work
# [5] = test system: H-ras 12V-overexpressing mouse; experiment: Splenocyte number in H-ras-transgenic mouse; format: in vivo; conditions: 50 mg/kg i.p. once every two days for 10 weeks, Tg mouse vs control group (NTg), FIG. 3A
# Description: A neonatal […] H-ras 12V-overexpressing mouse (KCTC 10318 BP) was intraperitoneally administered with 50 mg/kg of BCA and HCA (prepared by extracting the stem bark of C. cassia with organic solvents such as methanol and performing an isolation and purification process by various column chromatography methods) for ten weeks once every two days. Six months after birth, the spleen was excised from the mouse, and a single cell suspension was prepared. Red blood cells were removed from the single cell suspension using a RBC lysis solution (Sigma), and the number of splenocytes was counted under a microscope.
# [6] = test system: tumor cell growth; conditions: J. Biological Chemistry, 279(8), 6911-6920, 2004; cited from earlier work
# [7] = test system: proliferative vitreoretinopathy (PVR) model in rabbits; conditions: IOVS, 43(9), 3117-3124, 2002; cited from earlier work
# [8] = test system: H-ras 12V-overexpressing mouse; experiment: Effect of BCA on incidence of liver cancer in H-ras-overexpressing mouse (liver histology); format: in vivo
# Description: A neonatal […] H-ras 12V-overexpressing mouse (KCTC 10318 BP) was intraperitoneally administered with 50 mg/kg of BCA (prepared by reacting 2′-hydroxy-cinnamaldehyde (HCA) isolated from the stem bark of C. cassia with benzoyl chloride in the presence of triethylamine) for ten weeks once every two days. Six months after birth, the liver tissue was excised from the mouse in an aseptic state, fixed with a formaldehyde solution, and embedded in paraffin. The resulting paraffin block was sectioned into a thickness of 4 μm using a microtome (LEICA Company), and tissue sections were attached onto slides. The tissue was then stained with hematoxylin/eosin and observed under a reverse phased microscope (Model: Bx 50, Olympus Company).
# [9] = animal test, J. Toxicol. Pub. Health, 2003, 19, 259-266; cited from earlier work
# [10] = 50 mg/kg i.p. once every two days for ten weeks, six months after birth
SMILES,T cell response (splenocyte proliferation) [1],inhibition of angiogenesis [2],apoptosis in hRPE cells [3],inhibition of farnesyl-protein transferase [4],cell number in the spleen (splenocyte number) [5],cell number in the spleen (splenocyte number) ([5]; listed as BSA),inhibition of tumor cell growth [6],antiproliferative effect in PVR model [7],"portion progressed to cancer in the liver ([8]; 50 mg/kg i.p. once every two days for ten weeks from 4 months old, liver at six months, vs control FIG. 1A)","number of immune cells in the liver [8, 10]","tumor progression to liver cancer [8, 10]",toxicity in vivo [9]
"O=C/C=C/c1ccccc1OC(=O)c1ccccc1 [BCA, 2′-benzoyloxycinnamaldehyde]",highest T cell response,inhibitory effects,induces apoptosis,inhibit; also recorded: inhibitory effects,increased cell number,largest increase,inhibitory effects,antiproliferative effect,remarkably reduced,increased,inhibited,no toxicity
"O=CC=Cc1ccccc1O [HCA, 2′-hydroxycinnamaldehyde, reference compound]",,inhibitory effects,,inhibitory effects,increased cell number,,inhibitory effects,,,,,
